Laboratory results from article PMC11837542, “Two NADPH-dependent 2-ketogluconate reductases involved in 2-ketogluconate assimilation in Gluconobacter sp. strain CHM43” (Applied and Environmental Microbiology, 2025).

Columns and labels:
GLF_1777 (2KGR) [1] = tested on: T1, GLF_1777 (2KGR); test: NADH oxidation at […] nm, soluble cell extract of overexpressing strain; type: biochemical, Gluconobacter sp. CHM43; details: co-substrate 2KG; standard assay 10 mM K-2-ketogluconate, 50 mM Na-acetate pH 6.0, 25°C
T1 construct: untagged, full-length gene on plasmid pSKR57 in Gluconobacter sp; CHM43 delta-GLF_0478 (strain SKR104)

GLF_1777 (2KGR) [2] = tested on: T1, GLF_1777 (2KGR); test: NADPH oxidation at […] nm, soluble cell extract of overexpressing strain; type: biochemical, Gluconobacter sp. CHM43; details: co-substrate 2KG; standard assay 10 mM K-2-ketogluconate, 50 mM Na-acetate pH 6.0, 25°C

Compound | Km (GLF_1777 (2KGR) [1]) | Km (GLF_1777 (2KGR) [2])
NC(=O)C1=CN([C@@H]2O[C@H](COP(=O)(O)OP(=O)(O)OC[C@H]3O[C@@H](n4cnc5c(N)ncnc54)[C@H](O)[C@@H]3O)[C@@H](O)[C@H]2O)C=CC1 [NADH] | 100 ± 9 µM | 
NC(=O)C1=CN([C@@H]2O[C@H](COP(=O)(O)OP(=O)(O)OC[C@H]3O[C@@H](n4cnc5c(N)ncnc54)[C@H](OP(=O)(O)O)[C@@H]3O)[C@@H](O)[C@H]2O)C=CC1 [NADPH] |  | 3 ± 0.4 µM
